# Experiments:
# [1] = tested on: Auckland pH1N1 E119K; format: cell-based, influenza A virus; settings: pH 1
# [2] = tested on: sH1N1/01 H274Y; format: cell-based, influenza A virus; settings: read-out: IC50 sH1N/01 H274Y
# [3] = tested on: Sol Isl sH1N1 E119A; format: cell-based, influenza A virus
# [4] = tested on: sH1N1/08 H274Y; format: cell-based, influenza A virus
# [5] = tested on: Fukui H3N2 E119V; format: cell-based, influenza A virus
# [6] = tested on: B/Florida E119D (B/Florida/4/2006 mutant 1 E117D); format: cell-based, influenza B virus
# [7] = tested on: B/Perth D197E; format: cell-based, influenza B virus; settings: read-out: sensitivity to inhibitors, B/Perth D197E
SMILES,IC50 [1] [nM],IC50 [2] [nM],IC50 [3] [nM],IC50 [4] [nM],IC50 [5] [nM],IC50 [6] [nM],IC50 [7] [nM]
CCOC(=O)C1=C[C@@H](OC(CC)CC)[C@H](NC(C)=O)[C@@H](N)C1 [Oseltamivir],147,2440,419,2000,260000,1200,
"CC(=O)N[C@@H]1C(NC(=N)N)C(F)[C@](F)(C(=O)O)OC1[C@H](O)[C@H](O)CO (stereo partly drawn) [Compound 12, (2R,3R)-4-Guanyl-2,4-dideoxy-2,3-difluorosialic acid]",[…],217,[…],,[…],,162
"CC(=O)N[C@H]1[C@H]([C@H](O)[C@H](O)CO)OC(C(=O)O)=C[C@@H]1N=C(N)N [Zanamivir, reference compound]",> 100000,,> 10000,2,3400,> 10000,258
"CC(=O)NC1C(NC(=N)N)C(F)C(F)(C(=O)O)OC1[C@H](O)[C@H](O)CO (stereo partly drawn) [4-G3Feq diF SA, 5-Acetamido-2,4,5-trideoxy-2α, 3β-difluoro-4-guanidino-α-D-erythro-L-gluco-nonulopyranosonate]",[…],43.5,,,2400,,8

# Reference: patent publication US9834534B2, “Neuraminidase inhibitor compounds, compositions and methods for the use thereof in anti-viral treatments” (THE UNIVERSITY OF BRITISH COLUMBIA, priority 2009, dated 2017)
